Where no end group is shown, it is not given here. [ ]: non-standard residue; d: D form. Pro(cis-4-F) = O=C(O)[C@@H]1C[C@H](F)CN1; Hyp = O=C(O)[C@@H]1C[C@@H](O)CN1
Tests used:
[1] = tested on: IL-6 secretion, Raw 264.7 cells; assay: Anti-inflammatory efficacy: IL-6 ELISA in LPS-stimulated Raw 264.7 macrophages; type: cell-based, mouse; conditions: for IL-6 level increased by LPS: 1 μM peptide, 1 h pretreatment, LPS 1 μg/ml 24 h; for anti-inflammatory activity by regulating the secretion of IL-6: summary, concentration not given
Protocol: (§1) An anti-inflammatory efficacy was evaluated for representative examples of the above examples. Specifically, in order to confirm whether Examples 10, 32, 41, 55, 59 and 91, which are representative examples of 5 amino acid residues, Examples 11 and 30, which are representative examples of 6 amino acid residues, Example 86, which is a representative example of 7 amino acid residues, and Examples 103 and 104, which are representative examples of 8 amino acid residues, have an anti-inflammatory effect, a change in the secretion amount of inflammatory cytokines was confirmed by enzyme-linked immunosorbent assay (ELISA) using Raw 264.7 cells, which are macrophage (monocyte) cell lines.
(§2) Specifically, the Examples were diluted in Raw264.7 cells (Korean Cell Line Bank, 40071) at a concentration of 10 nM, 100 nM, 1 μM, and 10 μM, respectively, and pretreated for 1 hour, and then LPS (Sigma, L6529) at a concentration of 1 μg/ml was added to induce an inflammatory response. After 24 hours of induction, the cell culture supernatant was collected and analyzed. Enzyme-linked immunosorbent assay was performed using Mouse IL-6 Quantikine ELISA Kit (R&D systems, M6000B), TNF-alpha Quantikine ELISA Kit (R&D systems, MTA00B), Mouse IL-1 beta/IL-1F2 Quantikine ELISA Kit (R&D systems, MLB00C) in accordance with the manufacturer's manual.

[2] = Evaluation of dissolution stability (content change on storage in dissolved state); type: physicochemical; conditions: 1 mg/1 ml dissolved state, 40° C. and RH 75%
[3] = tested on: IL-1β secretion, Raw 264.7 cells; assay: Anti-inflammatory efficacy: IL-1β ELISA in LPS-stimulated Raw 264.7 macrophages; type: cell-based, mouse; conditions: for IL-1β level increased by LPS: 1 h pretreatment, LPS 1 μg/ml 24 h; for anti-inflammatory effect by regulating the secretion of IL-1β: summary, concentration not given
Protocol: as §1, §2

Row | Substance | IL-6 level increased by LPS [1] | anti-inflammatory activity by regulating the secretion of IL-6 [1] | Day 1 content (%) [2] | Day 3 content (%) [2] | Day 7 content (%) [2] | Initial content (%) [2] | IL-1β level increased by LPS ([3]; 100 nM peptide) | anti-inflammatory effect by regulating the secretion of IL-1β [3] | IL-1β level increased by LPS ([3]; 10 nM peptide) | IL-1β level increased by LPS ([3]; 1 μM peptide) | IL-1β level increased by LPS ([3]; 10 μM peptide)
1 | cis-4F-Pro-Gly-Gln-Asp-Gly ([Pro(cis-4-F)]GQDG) [Example 41] | significantly reduced | significant anti-inflammatory activity | 93.20% | 91.07% | 85.34% | 96.95% | significantly reduced | significant anti-inflammatory effect |  |  | 
2 | Hyp-Gly-Gln-Asp-Leu ([Hyp]GQDL) [Example 32] |  | significant anti-inflammatory activity | 96.81% | 93.57% | 90.50% | 98.05% | significantly reduced | significant anti-inflammatory effect | significantly reduced | significantly reduced | 
3 | Hyp-Gly-Gln-Glu-Val ([Hyp]GQEV) [Example 91] | significantly reduced | significant anti-inflammatory activity | 99.10% | 98.74% | 98.68% | 99.08% | reduced | significant anti-inflammatory effect | reduced | reduced | reduced

From patent US12428446B2, “Peptide compound or pharmaceutically acceptable salt thereof” (Eyebio Korea, priority 2019, dated 2025)
